Experimental data as given in patent US4738971A, “N-aryl-1,2-dihydro-4-substituted-1-alkyl-2-oxo-quinoline-3-carboxamides” (priority 1981, dated 1988).

These compounds were tested on delayed hypersensitivity reaction (pertussis vaccine pleurisy) (assay: pertussis vaccine pleurisy test in rats). Conditions: 10 mg/kg p.o.
Type: in vivo, rat (male Sprague-Dawley)
From the text: A useful test for the evaluation of the effect of chemical compounds on the immune system is the pertussis vaccine pleurisy test in rats. Compounds which enhance the response in this delayed hypersensitivity reaction are considered to stimulate cell-mediated immunity (4).
This example illustrates the effect of the compounds of the general formula I in the pertussis vaccine pleurisy test.
Pertussis vaccine pleurisy is a useful test for the evaluation of the effect of chemical compounds on the immune system. Compounds which enhance the response in this delayed hypersensitivity reaction are considered to stimulate cell-mediated immunity.
A modification of a method described in (4) was used. Male Sprague-Dawley rats weighing 250-275 g were used. At least ten animals were used in each group.
Equal volumes of Freund's incomplete adjuvant and a suspension of heat killed Bordetella pertussis organisms were mixed. To sensitize animals, day 0, 0.2 ml of a mixture containing 0.036×10^10 organisms/ml was injected into the dorsal surface of one hind paw and one forepaw.
The animals were challenged on day 12 with 0.1 ml of a mixture containing 0.25×10^10 organisms/ml that was injected intrapleurally. 48 hours after challenge, day 14, the volume of the exudate in the pleural cavity was measured.
The substances suspended in aqueous methocel solution 10 ml/kg were given intragastrically once daily from day 10 to day 13. The control groups were given methocel solution 10 ml/kg.
The effect of the substances was assessed by the exudate volume expressed in percent after comparison with the control groups.
For CN(C(=O)c1c(O)c2ccc(Cl)cc2n(C)c1=O)c1ccccc1 [20:2, N-methyl-N-phenyl-7-chloro-1,2-dihydro-4-hydroxy-1-methyl-2-oxo-quinoline-3-carboxamide], the “significant enhancing effect in the pertussis vaccine pleurisy test” value was “significant enhancing effect”.
CN(C)c1ccc2c(c1)c(O)c(C(=O)N(C)c1ccccc1)c(=O)n2C [20:3, N-methyl-N-phenyl-1,2-dihydro-6-dimethylamino-4-hydroxy-1-methyl-2-oxo-quinoline-3-carboxamide] was tested, and the “significant enhancing effect in the pertussis vaccine pleurisy test” value was “significant enhancing effect”.
COc1ccc2c(c1)c(O)c(C(=O)N(C)c1ccc(Cl)cc1)c(=O)n2C [20:4, N-(4-chloro-phenyl)-N-methyl-1,2-dihydro-4-hydroxy-6-methoxy-1-methyl-2-oxo-quinoline-3-carboxamide] was tested, and the “significant enhancing effect in the pertussis vaccine pleurisy test” value was “significant enhancing effect”.
CCN(CC)c1ccc(N(C)C(=O)c2c(O)c3ccccc3n(C)c2=O)cc1 [20:20, N-methyl-N-/4-diethylaminophenyl/-1,2-dihydro-4-hydroxy-1-methyl-2-oxo-quinoline-3-carboxamide] was tested, and the “significant enhancing effect in the pertussis vaccine pleurisy test” value was “significant enhancing effect”.
CN(C(=O)c1c(O)c2ccccc2n(C)c1=O)c1ccc(N2CCCC2)cc1 [20:21, N-methyl-N-/4-pyrrolidinophenyl/-1,2-dihydro-4-hydroxy-1-methyl-2-oxo-quinoline-3-carboxamide] was tested, and the “significant enhancing effect in the pertussis vaccine pleurisy test” value was “significant enhancing effect”.
COCCN(C(=O)c1c(O)c2ccccc2n(C)c1=O)c1cnccn1 [20:54, N-(2-methoxy-ethyl)-N-pyrazinyl-1,2-dihydro-4-hydroxy-1-methyl-2-oxo-quinoline-3-carboxamide] was tested, and the “significant enhancing effect in the pertussis vaccine pleurisy test” value was “significant enhancing effect”.
CN(C(=O)c1c(O)c2ccccc2n(C)c1=O)c1ncc[nH]1 [20:74, N-(2-imidazolyl)-N-methyl-1,2-dihydro-4-hydroxy-1-methyl-2-oxo-quinoline-3-carboxamide] was tested, and the “significant enhancing effect in the pertussis vaccine pleurisy test” value was “significant enhancing effect”.
Cc1cc(N(C)C(=O)c2c(O)c3ccccc3n(C)c2=O)sn1 [20:78, N-methyl-N-(3-methyl-5-isothiazolyl)-1,2-dihydro-4-hydroxy-1-methyl-2-oxo-quinoline-3-carboxamide] was tested, and the “significant enhancing effect in the pertussis vaccine pleurisy test” value was “significant enhancing effect”.
For CN(C(=O)c1c(O)c2ccccc2n(C)c1=O)c1ccc(C(=O)O)cc1 [21:13, N-(4-carboxyphenyl)-N-methyl-1,2-dihydro-4-hydroxy-1-methyl-2-oxo-quinoline-3-carboxamide], the “significant enhancing effect in the pertussis vaccine pleurisy test” value was “significant enhancing effect”.

These compounds were tested on carrageenan-induced edema (assay: carrageenan edema test in rats). Conditions: Rattus norvegicus, po; 80 mg/kg p.o., 30 min before carrageenan; edema weight 3 h after, vs control; preliminary; read-out: Potentiation of the carrageenan edema, %.
Type: in vivo, rat (female Sprague-Dawley)
From the text: Another test, in which the effect of a drug corresponds to the effects obtained in the tests mentioned above, and which can therefore also be used, is the well-established carrageenan edema test in rats (5). Comparative evaluation of compounds of the present invention in the three tests mentioned has shown that compounds which increase the extent of the delayed hypersensitivity reaction in the pertussis vaccine pleurisy test and in the adjuvant arthritis test also increase the extent of carrageenan-induced edema in the carrageenan edema test, thus providing a further tool for the determination of enhancement of cell-mediated immunity.
This example illustrates the effect of the compounds of the general formula I in the carrageenan edema test in rats.
A modification of a method described in (5) was used. Female Sprague-Dawleyrats weighing 110-120 g was used. At least 10 animals were used in each experimental group. Foot edema was induced by injecting carrageenan in 0.9% NaCl into the plantar surface of the right hind paw of the rats.
The substances suspended in aqueous methocel solution 10 ml/kg were administered intragastrically 30 minutes before the injection of carrageenan. The control groups were given methocel solution 10 ml/kg.
Three hours after carrageenan injection the animals were killed. The hind feet were cut off and weighed. The difference in weight of the injected right paw and the uninjected left paw was called edema weight.
The effect of the substances was assessed by the edema weight expressed in percent after comparison with the control groups.
O=C(Nc1ccccc1)c1c(O)c2ccccc2n(-c2ccccc2)c1=O [1:3, N-1-diphenyl-1,2-dihydro-4-hydroxy-2-oxo-quinoline-3-carboxamide] showed a change in vivo at 80 mg/kg of 41%.
In the case of CC(C)Cn1c(=O)c(C(=O)Nc2ccccc2)c(O)c2ccccc21 [1:15, N-phenyl-1,2-dihydro-4-hydroxy-1-isobutyl-2-oxo-quinoline-3-carboxamide], the change in vivo at 80 mg/kg was 30%.
Work on Cn1c(=O)c(C(=O)Nc2ccccc2)c(O)c2ccc(Cl)cc21 [1:17, N-phenyl-7-chloro-1,2-dihydro-4-hydroxy-1-methyl-2-oxo-quinoline-3-carboxamide] yielded a change in vivo at 80 mg/kg of 43%.
Cn1c(=O)c(C(=O)Nc2ccccc2)c(O)c2cc(Cl)ccc21 [1:18, N-phenyl-6-chloro-1,2-dihydro-4-hydroxy-1-methyl-2-oxo-quinoline-3-carboxamide] was tested, and the change in vivo at 80 mg/kg was 36%.
CNc1ccc(NC(=O)c2c(O)c3ccccc3n(C)c2=O)cc1 [1:21, N-/4-methylaminophenyl/-1,2-dihydro-4-hydroxy-1-methyl-2-oxo-quinoline-3-carboxamide] showed a change in vivo at 80 mg/kg of 22%.
In the case of CCN(CC)c1ccc(NC(=O)c2c(O)c3ccccc3n(C)c2=O)cc1 [1:23, N-/4-diethylaminophenyl/-1,2-dihydro-4-hydroxy-1-methyl-2-oxo-quinoline-3-carboxamide], the change in vivo at 80 mg/kg was 29%.
In the case of CCNc1ccc(NC(=O)c2c(O)c3ccccc3n(C)c2=O)cc1 [1:45, N-(4-ethylaminophenyl)-1,2-dihydro-4-hydroxy-1-methyl-2-oxo-quinoline-3-carboxamide], the change in vivo at 80 mg/kg was 47%.
Compound Cc1ccc2c(c1)c(O)c(C(=O)Nc1ccccc1)c(=O)n2C [1:46, N-phenyl-1,2-dihydro-1,6-dimethyl-4-hydroxy-2-oxo-quinoline-3-carboxamide] has a change in vivo at 80 mg/kg of 32%.
COc1c(C(=O)Nc2ccc(N(C)C)cc2)c(=O)n(C)c2ccccc12 [6:3, N-(4-dimethylaminophenyl)-1,2-dihydro-4-methoxy-1-methyl-2-oxo-quinoline-3-carboxamide] gave a change in vivo at 80 mg/kg of 32%.
Cn1c(=O)c(C(=O)Nc2ccccn2)c(O)c2ccccc21 [7:2, N-/2-pyridyl/-1,2-dihydro-4-hydroxy-1-methyl-2-oxo-quinoline-3-carboxamide] showed a change in vivo at 80 mg/kg of 44%.
Work on Cc1csc(NC(=O)c2c(O)c3ccccc3n(C)c2=O)n1 [7:3, N-/2-(4-methyl-thiazolyl)/-1,2-dihydro-4-hydroxy-1-methyl-2-oxo-quinoline-3-carboxamide] yielded a change in vivo at 80 mg/kg of 47%.
With Cn1c(=O)c(C(=O)Nc2ccccc2)c(N)c2ccccc21 [10:1, N-phenyl-4-amino-1,2-dihydro-1-methyl-2-oxo-quinoline-3-carboxamide] the change in vivo at 80 mg/kg was 36%.
For Cn1c(=N)c(C(=O)Nc2ccccc2)c(O)c2ccccc21 [11:1, N-phenyl-1,2-dihydro-4-hydroxy-2-imino-1-methyl-quinoline-3-carboxamide], the change in vivo at 80 mg/kg was 46%.
O=C(Nc1cnccn1)c1c(O)c2cccc3c2n(c1=O)CC3 [14:9, N-pyrazinyl-1,2-dihydro-1,8-ethylene-4-hydroxy-2-oxo-quinoline-3-carboxamide] was tested, and the change in vivo at 80 mg/kg was 21%.

Same assay, conditions: dose within the range 10-160 mg/kg p.o.
Cn1c(=O)c(C(=O)Nc2ccc(N)cc2)c(O)c2ccccc21 [8:1, N-(4-aminophenyl)-1,2-dihydro-4-hydroxy-1-methyl-2-oxo-quinoline-3-carboxamide] was tested, and the “significant potentiation of the carrageenan edema” value (“significant potentiation” below) was “potentiate significantly”.
In the case of Cc1csc(NC(=O)c2c(O)c3cc(N(C)C)cc4c3n(c2=O)CCC4)n1 [14:7, N-(4-methyl-2-thiazolyl)-1,2-dihydro-6-dimethylamino-4-hydroxy-2-oxo-1,8-trimethylene-quinoline-3-carboxamide], the “significant potentiation” value was “potentiate significantly”.
With O=C(Nc1cccnn1)c1c(O)c2cc(O)cc3c2n(c1=O)CC3 [14:12, N-(3-pyridazinyl)-1,2-dihydro-4,6-dihydroxy-1,8-ethylene-2-oxo-quinoline-3-carboxamide] the “significant potentiation” value was “potentiate significantly”.
With COc1c(C(=O)Nc2nccs2)c(=O)n2c3c(cccc13)CC2 [16:1, N-(2-thiazolyl)-1,2-dihydro-1,8-ethylene-4-methoxy-2-oxo-quinoline-3-carboxamide] the “significant potentiation” value was “potentiate significantly”.
In the case of COc1c(C(=O)Nc2nccs2)c(=O)n(C)c2ccccc12 [17:1, N-(2-thiazolyl)-1,2-dihydro-4-methoxy-1-methyl-2-oxo-quinoline-3-carboxamide], the “significant potentiation” value was “potentiate significantly”.
COc1c(C(=O)Nc2ccccc2)c(=O)n2c3c(cccc13)CC2 [18:1, N-phenyl-1,2-dihydro-1,8-ethylene-4-methoxy-2-oxo-quinoline-3-carboxamide] was tested, and the “significant potentiation” value was “potentiate significantly”.
With COc1c(C(=O)Nc2ccccc2)c(=O)n2c3c(cccc13)CCC2 [18:2, N-phenyl-1,2-dihydro-4-methoxy-2-oxo-1,8-trimethylene-quinoline-3-carboxamide] the “significant potentiation” value was “potentiate significantly”.
For CCOc1c(C(=O)Nc2ccc(N(C)C)cc2)c(=O)n2c3c(cccc13)CC2 [18:3, N-(4-dimethylaminophenyl)-1,2-dihydro-4-ethoxy-1,8-ethylene-2-oxo-quinoline-3-carboxamide], the “significant potentiation” value was “potentiate significantly”.
